# Measurements reported in publication PMC7052167, “TCR–pMHC bond conformation controls TCR ligand discrimination” (Cellular and Molecular Immunology, 2019).
# What was measured:
# Format in all cases: cell-based, mouse
# [1] = tested on: TCR–CD3ζ complex of 5C.C7 T cells; experiment: Transmembrane TCR–CD3ζ FRET2 (GFP/Alexa Fluor 568), intramolecular TCR–CD3ζ distance; conditions: 10 μM PP2
# Description: To determine the conformation of a single TCR–pMHC bond, a TCR and a pMHC were site-specifically labeled with the FRET acceptor Cy5 and the FRET donor Cy3, respectively.[8] The peptide within the MHC molecule was labeled with Cy3, and the TCR was labeled with the anti-TCR single-chain variable fragment (scFv) J1-Cy5 (Fig. 1a and Fig. S1a). The intermolecular distance between Cy3 and Cy5 provided a reasonable approximation of the conformation (or compactness) of the TCR–pMHC bond. The conformation of a single TCR–pMHC bond on the cell surface was measured by Cy3/Cy5 FRET (FRET1) (Fig. 1a) in real time by total internal reflection fluorescence (TIRF) microscopy (Fig. S1b). The Cy3/Cy5 inter-dye distance of a TCR–pMHC bond is denoted as the TCR–pMHC bond distance to describe the TCR–pMHC bond conformation in the following paragraphs. […] The real-time intramolecular distances of the TCR–CD3ζ complexes were measured by GFP/Alexa Fluor 568 FRET (FRET2) (Fig. 1a) using epifluorescence time-lapse microscopy (Fig. S1b).
# It is not clear what induces the dissociation of CD3ζ from the membrane to initiate T-cell intracellular signaling. […] We tracked and measured the FRET efficiencies of each individual microcluster in real time. […]
# [2] = tested on: TCR microclusters of 5C.C7 T cells; experiment: TCR microcluster formation at the T-cell synapse; conditions: 10 μM PP2
# Description: TCRs form microclusters upon antigen stimulation (Movie S4). To measure the conformational dynamics of single TCR–pMHC bonds without possible interference from TCR microclusters, we used latrunculin A (LA) to prevent the formation of TCR microclusters during smFRET measurements. […] We then performed smFRET in the absence of TCR microclusters.
# To test whether TCR–CD3ζ conformational changes were dependent on TCR signaling, we used an Src kinase inhibitor PP2[27] to block TCR signaling. Consistent with the results of a previous study,[21] […] To reveal the role of TCR signaling in TCR–CD3ζ conformational changes, we plotted the time trajectories of the normalized intramolecular TCR–CD3ζ distances against the stimulation time in the absence and presence of PP2 (Fig. 4d). In the absence of PP2, the intracellular CD3ζ chain quickly separated from the TCR extracellular domain upon TCR engagement with the K5 pMHC and then reached a stable, fully extended TCR–CD3ζ conformation.
# (§1) To measure the TCR–pMHC bond distance by smFRET in the absence of CD4 binding, T cells were incubated with 10 μg/mL anti-CD4 antibody (GK 1.5, Biolegend) and 0.027 µg/µL of Cy5-J1 scFV for 30 min at 4 °C. After three washes, the cells were added to a lipid bilayer containing Cy3-pMHCs, and smFRET assays were performed in the continuous presence of 10 μg/mL anti-CD4 antibody at 37 °C using TIRF microscopy. […]
# 5C.C7 T cell = experiment: T-cell calcium signaling (fluorescence imaging); conditions: 10 μM PP2; X-Rhod-5F indicator, 37 °C
# Description: To understand how the TCR–pMHC bond conformation triggers T-cell signaling, we devised a fluorescence micropipette assay to measure real-time T-cell calcium signaling at the single-cell level. Fast single T-cell calcium flux was observed upon T cell/APC contact (bond formation). Consistently, the calcium signaling amplitude and speed were dependent on the peptide potency (Fig. 5e, f, Fig. S15, and Movie S7). To link the TCR conformational change to TCR signaling, we simultaneously plotted the association of the TCR–CD3ζ conformational change with the Ca^2+ signal against the stimulation time. […] Ca^2+ release in turn drives the dissociation of positively charged CD3ζ from the negatively charged phospholipids in the plasma membrane[32] to expose the CD3ζ ITAM domains for phosphorylation via a Ca^2+ signaling feedback loop (Fig. 5h).
# as §1
structure (smiles),measurement,setting,value
CC(C)(C)n1nc(-c2ccc(Cl)cc2)c2c(N)ncnc21 [PP2],effect of PP2 on TCR–CD3ζ conformational change,"[1]; K5 pMHC, 37 °C",completely abolished the TCR-CD3 conformational change
same,effect of PP2 on TCR–CD3ζ conformational change (MCC and 102S),"[1]; MCC and 102S pMHCs, Fig. S11",this effect of TCR signaling was also found
same,effect of PP2 on TCR microcluster formation,[2],TCRs could still form microclusters
same,effect of PP2 on T-cell calcium signaling,5C.C7 T cell,completely abrogated T-cell calcium signaling
